The target in assay [1] is T1, human recombinant histamine H1 receptor (Homo sapiens, UniProt P35367).
T1 construct: expressed in transfected cells; host or cells: CHO cells
Put plainly: Histamine H1 radioligand binding ([3H]Pyrilamine). Particulars: compound at 1 μM; read-out: Histamine Binding (1 μM) H1, percent inhibition of specific binding. Put shortly:
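Membranes from CHO cells expressing the receptor were incubated with compound and 1.2 nM [3H]pyrilamine for 180 min at 25 °C in 50 mM Tris-HCl pH 7.4 with MgCl2, NaCl and sucrose; 1 μM pyrilamine defined non-specific binding. Filter-bound radioactivity was counted.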

The target in assay [2] is T2, human recombinant histamine H2 receptor (Homo sapiens, UniProt P25021).
T2 construct: expressed in transfected cells; host or cells: CHO-K1 cells
T2 sequence (P25021 whole entry): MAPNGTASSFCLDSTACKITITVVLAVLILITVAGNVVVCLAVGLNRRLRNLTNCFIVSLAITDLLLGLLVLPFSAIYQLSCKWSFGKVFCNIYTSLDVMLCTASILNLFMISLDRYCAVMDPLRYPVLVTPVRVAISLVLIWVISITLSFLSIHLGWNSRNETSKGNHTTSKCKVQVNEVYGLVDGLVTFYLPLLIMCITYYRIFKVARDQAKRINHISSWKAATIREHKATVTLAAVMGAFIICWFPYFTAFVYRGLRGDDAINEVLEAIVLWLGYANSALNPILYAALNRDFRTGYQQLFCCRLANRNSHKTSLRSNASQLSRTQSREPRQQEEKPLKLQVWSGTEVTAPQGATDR
As to the kind of experiment: Histamine H2 radioligand binding ([125I]Aminopotentidine). The conditions noted are these: compound at 1 μM; read-out: Histamine Binding (1 μM) H2, percent inhibition of specific binding. In outline: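 Membranes from CHO-K1 cells expressing recombinant human H2 receptor, in 50 mM phosphate buffer pH 7.4, incubated with 0.1 nM [125I]aminopotentidine for 120 min at 25 °C; nonspecific binding defined with 3 μM tiotidine.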

Assay [3] has as its target T3, human recombinant dopamine D2L receptor (Homo sapiens, UniProt P14416).
T3 construct: expressed in transfected cells; host or cells: CHO cells
Put plainly: Dopamine D2L radioligand binding ([3H]Spiperone). Particulars: compound at 1 μM; read-out: Dopamine (1 μM) D2L, percent inhibition of specific binding. In outline: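 Binding measured by filtration and counting, reported as % inhibition of specific [3H]spiperone binding (0.16 nM tracer; 10 μM haloperidol for nonspecific). Compounds tested at ≤1 μM in 1% DMSO for 120 min at 25° C against CHO-expressed human D2L in pH 7.4 Tris-HCl buffer.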

Assay [4] deals with T4, human recombinant serotonin (5-Hydroxytryptamine) 5-HT2C receptor (Homo sapiens, UniProt P28335).
T4 construct: expressed in transfected cells; host or cells: CHO-K1 cells
T4 sequence (P28335 33-458): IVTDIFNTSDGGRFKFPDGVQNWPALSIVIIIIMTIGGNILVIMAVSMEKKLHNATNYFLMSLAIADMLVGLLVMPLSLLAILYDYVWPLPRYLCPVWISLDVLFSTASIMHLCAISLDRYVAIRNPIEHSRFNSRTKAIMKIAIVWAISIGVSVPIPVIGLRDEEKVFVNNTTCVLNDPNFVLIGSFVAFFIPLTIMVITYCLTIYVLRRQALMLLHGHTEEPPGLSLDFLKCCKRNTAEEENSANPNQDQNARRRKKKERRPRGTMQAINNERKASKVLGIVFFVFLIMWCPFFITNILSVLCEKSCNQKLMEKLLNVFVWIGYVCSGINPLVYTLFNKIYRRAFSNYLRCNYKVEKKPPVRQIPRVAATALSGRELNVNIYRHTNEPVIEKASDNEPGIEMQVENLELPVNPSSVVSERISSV
As to the kind of experiment: Serotonin 5-HT2C radioligand binding ([3H]Mesulergine). Particulars: compound at 1 μM; read-out: Serotonin (1 μM) 5-HT2C, percent inhibition of specific binding. In outline:
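Membranes from CHO-K1 cells expressing human 5-HT2C, incubated with 1 nM [3H]mesulergine for 60 min at 25 °C in 50 mM Tris-HCl pH 7.4 with ascorbic acid and pargyline.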

T3 sequence (P14416 whole entry): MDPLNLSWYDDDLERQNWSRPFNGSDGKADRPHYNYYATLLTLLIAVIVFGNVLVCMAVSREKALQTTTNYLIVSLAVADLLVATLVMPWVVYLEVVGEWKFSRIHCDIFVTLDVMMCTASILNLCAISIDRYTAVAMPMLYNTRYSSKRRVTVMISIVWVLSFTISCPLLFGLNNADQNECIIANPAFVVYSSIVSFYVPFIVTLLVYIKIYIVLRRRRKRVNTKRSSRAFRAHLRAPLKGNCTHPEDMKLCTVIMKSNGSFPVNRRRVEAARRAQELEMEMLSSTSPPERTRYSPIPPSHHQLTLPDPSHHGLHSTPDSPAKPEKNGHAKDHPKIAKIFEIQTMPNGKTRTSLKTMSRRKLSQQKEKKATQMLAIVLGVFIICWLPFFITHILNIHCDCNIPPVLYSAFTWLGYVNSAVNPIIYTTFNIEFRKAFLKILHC
T1 sequence (P35367 whole entry): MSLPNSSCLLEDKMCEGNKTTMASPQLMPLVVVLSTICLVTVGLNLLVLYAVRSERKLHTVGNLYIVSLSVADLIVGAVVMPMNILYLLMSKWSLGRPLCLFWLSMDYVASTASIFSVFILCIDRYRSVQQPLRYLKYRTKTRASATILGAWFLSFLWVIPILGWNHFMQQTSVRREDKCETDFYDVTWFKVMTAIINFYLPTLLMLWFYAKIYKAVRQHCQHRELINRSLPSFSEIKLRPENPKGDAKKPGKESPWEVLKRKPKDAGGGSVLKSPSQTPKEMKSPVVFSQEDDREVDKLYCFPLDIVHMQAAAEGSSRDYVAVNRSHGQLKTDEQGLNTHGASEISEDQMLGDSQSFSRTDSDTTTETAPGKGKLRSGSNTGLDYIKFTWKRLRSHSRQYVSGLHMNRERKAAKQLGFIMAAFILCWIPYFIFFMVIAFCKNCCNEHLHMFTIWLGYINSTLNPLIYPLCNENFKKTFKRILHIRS

A word on the inhibition: it is the drop in the measured response relative to a control, in per cent. In the case of `Cc1ccc2c(c1)c1c(n2CC(=O)Nc2ccccc2)CCN(C)CC1` [Compound No. 79, 2-(2,3,4,5-tetrahydro-3,9-dimethylazepino[4,5-b]indol-6(1H)-yl)-N-phenylacetamide], the inhibition at 1 µM was 6% in assay [1], 0% in assay [2], -7% in assay [3] and -18% in assay [4].

Consider `C/C(=C/n1c2c(c3cc(C)ccc31)CCN(C)CC2)c1ccc(Cl)cc1Cl` [Compound No. 174, (Z)-6-(2-(2,4-dichlorophenyl)prop-1-enyl)-1,2,3,4,5,6-hexahydro-3,9-dimethylazepino[4,5-b]indole], for which the inhibition at 1 µM is 98% in assay [1], 99% in assay [2], 34% in assay [3] and 101% in assay [4].

Regarding `COc1ccc(C(O)Cn2c3c(c4cc(Cl)ccc42)CCN(C)CC3)cc1OC` (stereo not drawn) [Compound No. 77, 2-(9-chloro-2,3,4,5-tetrahydro-3-methylazepino[4,5-b]indol-6(1H)-yl)-1-(3,4-dimethoxyphenyl)ethanol], the inhibition at 1 µM in assay [1] came to 97%; in assay [2], 37%; in assay [3], 16%; in assay [4], 72%.

As for `CN1CCc2c(n(CCc3ccc(C(F)(F)F)nc3)c3ccc(Cl)cc23)CC1` [Compound No. 1, 9-chloro-6-(2-(6-(trifluoromethyl)pyridin-3-yl)ethyl)-1,2,3,4,5,6-hexahydro-3-methylazepino[4,5-b]indole], the inhibition at 1 µM was 96% in assay [1], 58% in assay [2], 23% in assay [3] and 79% in assay [4].

Regarding `COc1ccc(C(O)Cn2c3c(c4cc(C)ccc42)CCN(C)CC3)cc1OC` (stereo not drawn) [Compound No. 227, 1-(3,4-dimethoxyphenyl)-2-(3,9-dimethyl-2,3,4,5-tetrahydroazepino[4,5-b]indol-6(1H)-yl)ethanol], the inhibition at 1 µM in assay [1] came to 95%; in assay [2] it was 19%; in assay [3], 5%; in assay [4], 66%.

`COc1ccc(/C=C/n2c3c(c4cc(C)ccc42)CCN(C)CC3)cc1F` [Compound No. 180, (E)-6-(3-fluoro-4-methoxystyryl)-1,2,3,4,5,6-hexahydro-3,9-dimethylazepino[4,5-b]indole]: the inhibition at 1 µM in assay [1] turned out to be 97%; in assay [2] it was 77%; in assay [3] it was 62%; in assay [4], 100%.

In the case of `COc1ccc(/C=C/n2c3c(c4cc(Cl)ccc42)CCN(C)CC3)cc1` [Compound No. 78, 6-(4-methoxystyryl)-9-chloro-1,2,3,4,5,6-hexahydro-3-methylazepino[4,5-b]indole], the inhibition at 1 µM in assay [1] was found to be 100%; in assay [2] it was 91%; in assay [3], 58%; in assay [4], 98%.

For `C/C(=C\n1c2c(c3cc(Cl)ccc31)CCN(C)CC2)c1ccc(F)cc1` [Compound No. 2, 9-chloro-6-((E)-2-(4-fluorophenyl)prop-1-enyl)-1,2,3,4,5,6-hexahydro-3-methylazepino[4,5-b]indole], the inhibition at 1 µM in assay [1] was 93%; in assay [2], 105%; in assay [3], 97%; in assay [4] it was 88%.

With `C=C(Cn1c2c(c3cc(Cl)ccc31)CCN(C)CC2)c1ccc(F)cc1` [Compound No. 82, 9-chloro-6-(2-(4-fluorophenyl)allyl)-3-methyl-1,2,3,4,5,6-hexahydroazepino[4,5-b]indole], the inhibition at 1 µM in assay [1] is 103%; in assay [2], 95%; in assay [3], 90%; in assay [4], 98%.

Take `CC1CCN(C(=O)Cn2c3c(c4cc(Cl)ccc42)CCN(C)CC3)CC1` [Compound No. 76, 2-(9-chloro-2,3,4,5-tetrahydro-3-methylazepino[4,5-b]indol-6(1H)-yl)-1-(4-methylpiperidin-1-yl)ethanone]: the inhibition at 1 µM stood at 95% in assay [1], 19% in assay [2], 0% in assay [3] and 78% in assay [4].

Consider `Cc1ccc2c(c1)c1c(n2CC(=O)N2CCC(C)CC2)CCN(C)CC1` [Compound No. 225, 2-(3,9-dimethyl-2,3,4,5-tetrahydroazepino[4,5-b]indol-6(1H)-yl)-1-(4-methylpiperidin-1-yl)ethanone], for which the inhibition at 1 µM in assay [1] amounted to 95%; in assay [2], 6%; in assay [3], 3%; in assay [4], 44%.

For `CN1CCc2c(n(/C=C/c3ccccc3)c3ccc(Cl)cc23)CC1` [Compound No. 228, (E)-9-chloro-3-methyl-6-styryl-1,2,3,4,5,6-hexahydroazepino[4,5-b]indole], the inhibition at 1 µM in assay [1] is 99%; in assay [2], 97%; in assay [3], 73%; in assay [4], 97%.

With `COc1ccc(/C=C/n2c3c(c4cc(Cl)ccc42)CCN(C)CC3)cc1F` [Compound No. 158, (E)-6-(3-fluoro-4-methoxystyryl)-9-chloro-1,2,3,4,5,6-hexahydro-3-methylazepino[4,5-b]indole], the inhibition at 1 µM in assay [1] turned out to be 98%; in assay [2], 89%; in assay [3], 65%; in assay [4], 99%.

For `C/C(=C/n1c2c(c3cc(Cl)ccc31)CCN(C)CC2)c1ccc(Cl)cc1Cl` [Compound No. 152, (Z)-9-chloro-6-(2-(2,4-dichlorophenyl)prop-1-enyl)-1,2,3,4,5,6-hexahydro-3-methylazepino[4,5-b]indole], the inhibition at 1 µM is 91% in assay [1], 86% in assay [2], 3% in assay [3] and 94% in assay [4].

`COc1ccc(/C=C/n2c3c(c4cc(Cl)ccc42)CCN(C)CC3)cc1OC` [Compound No. 226, (E)-9-chloro-6-(3,4-dimethoxystyryl)-3-methyl-1,2,3,4,5,6-hexahydroazepino[4,5-b]indole]: the inhibition at 1 µM in assay [1] is 99%; in assay [2], 39%; in assay [3], 37%; in assay [4] it was 82%.

For `CN1CCc2c(n(/C=C/c3ccccc3F)c3ccc(Cl)cc23)CC1` [Compound No. 83, (E)-9-chloro-6-(2-fluorostyryl)-3-methyl-1,2,3,4,5,6-hexahydro azepino[4,5-b]indole], the inhibition at 1 µM in assay [1] was 97%; in assay [2] it was 98%; in assay [3], 61%; in assay [4] it was 100%.

In the case of `Cc1ccc2c(c1)c1c(n2CC(=O)N2CCNCC2)CCN(C)CC1` [Compound No. 224, 2-(3,9-dimethyl-2,3,4,5-tetrahydroazepino[4,5-b]indol-6(1H)-yl)-1-(piperazin-1-yl)ethanone], the inhibition at 1 µM was 33% in assay [1], -4% in assay [2], -2% in assay [3] and 11% in assay [4].

In the case of `Cc1cncc(CCn2c3c(c4cc(Cl)ccc42)CCN(C)CC3)c1` [Compound No. 3, 9-chloro-3-methyl-6-(2-(5-methylpyridin-3-yl)ethyl)-1,2,3,4,5,6-hexahydroazepino[4,5-b]indole], the inhibition at 1 µM in assay [1] is 102%; in assay [2] it was 82%; in assay [3], 27%; in assay [4], 94%.

Source of the values: patent publication US9481676B2, “Azepino[4,5-B]indoles and methods of use” (Medivation Technologies, Inc., priority 2008, dated 2016).
